Calls of active or inactive are those of the source. No cut-off for these calls is given here.

Data set [1] has as its system RAW264.7. The data set is described as follows: Anti-inflammatory activity in mouse RAW264.7 cells assessed as inhibition of LPS-induced IL-18 production pretreated with compound for 2 hrs followed by LPS addition for 22 hrs and measured 30 mins after LPS addition by ELISA. The format is functional, cell-based. The note with it: dose 1.5-6 µM, time 24.5 hrs.
Data set [2] in a line: Cytotoxicity against mouse RAW264.7 cells assessed as survival rate at 2.5 uM incubated overnight by CCK-8 assay relative to control. The format is toxicity, cell-based. To be noted: read-out: Survival.
Data set [3] relates to RAW264.7. The data set is described as follows: Anti-inflammatory activity in mouse RAW264.7 cells assessed as inhibition of LPS-induced TNF-alpha production at 2.5 uM pretreated with compound for 2 hrs followed by LPS addition and measured after 22 hrs by ELISA relative to control. The format is functional. To be noted: time 24 hrs.
Data set [4] deals with RAW264.7. The data set is described as follows: Anti-inflammatory activity in mouse RAW264.7 cells assessed as inhibition of LPS-induced IL-6 production at 2.5 uM pretreated with compound for 2 hrs followed by LPS addition and measured after 22 hrs by ELISA relative to control. The format is functional. To be noted: time 24 hrs.
Data set [5] relates to RAW264.7. The data set is described as follows: Anti-inflammatory activity in mouse RAW264.7 cells assessed as inhibition of LPS-induced TNF-alpha production pretreated with compound for 2 hrs followed by LPS addition and measured after 22 hrs by ELISA. The format is functional, cell-based. To be noted: dose 1.5-6 µM, time 24.0 hrs.
For data set [6], the system named is RAW264.7. The data set is described as follows: Anti-inflammatory activity in mouse RAW264.7 cells assessed as inhibition of LPS-induced IL-6 production pretreated with compound for 2 hrs followed by LPS addition and measured after 22 hrs by ELISA. The format is functional, cell-based. The note with it: dose 1.5-6 µM, time 24.0 hrs.
Data set [7] concerns RAW264.7. The data set is described as follows: Anti-inflammatory activity in mouse RAW264.7 cells assessed as inhibition of LPS-induced IL-1beta production pretreated with compound for 2 hrs followed by LPS addition for 22 hrs and measured 30 mins after LPS addition by ELISA. Type of data set: functional, cell-based. To be noted: dose 1.5-6 µM, time 24.5 hrs.
The target of data set [8] is NACHT, LRR and PYD domains-containing protein 3 (Mus musculus) (UniProt Q8R4B8). The data set is described as follows: Inhibition of NLRP3 inflammasome activation in LPS-induced mouse RAW264.7 cells assessed as reduction in ROS production by measuring intracellular ROS level at 1.5 uM incubated for 24 hrs by DCFH-DA staining based flow cytometric analysis (reference value: 42.0%). Type of data set: cell-based. Further details: scale not given: the % may be the effect or the level left.
Chain of NACHT, LRR and PYD domains-containing protein 3 (Mus musculus) (Q8R4B8 whole entry, the tested form may be a part): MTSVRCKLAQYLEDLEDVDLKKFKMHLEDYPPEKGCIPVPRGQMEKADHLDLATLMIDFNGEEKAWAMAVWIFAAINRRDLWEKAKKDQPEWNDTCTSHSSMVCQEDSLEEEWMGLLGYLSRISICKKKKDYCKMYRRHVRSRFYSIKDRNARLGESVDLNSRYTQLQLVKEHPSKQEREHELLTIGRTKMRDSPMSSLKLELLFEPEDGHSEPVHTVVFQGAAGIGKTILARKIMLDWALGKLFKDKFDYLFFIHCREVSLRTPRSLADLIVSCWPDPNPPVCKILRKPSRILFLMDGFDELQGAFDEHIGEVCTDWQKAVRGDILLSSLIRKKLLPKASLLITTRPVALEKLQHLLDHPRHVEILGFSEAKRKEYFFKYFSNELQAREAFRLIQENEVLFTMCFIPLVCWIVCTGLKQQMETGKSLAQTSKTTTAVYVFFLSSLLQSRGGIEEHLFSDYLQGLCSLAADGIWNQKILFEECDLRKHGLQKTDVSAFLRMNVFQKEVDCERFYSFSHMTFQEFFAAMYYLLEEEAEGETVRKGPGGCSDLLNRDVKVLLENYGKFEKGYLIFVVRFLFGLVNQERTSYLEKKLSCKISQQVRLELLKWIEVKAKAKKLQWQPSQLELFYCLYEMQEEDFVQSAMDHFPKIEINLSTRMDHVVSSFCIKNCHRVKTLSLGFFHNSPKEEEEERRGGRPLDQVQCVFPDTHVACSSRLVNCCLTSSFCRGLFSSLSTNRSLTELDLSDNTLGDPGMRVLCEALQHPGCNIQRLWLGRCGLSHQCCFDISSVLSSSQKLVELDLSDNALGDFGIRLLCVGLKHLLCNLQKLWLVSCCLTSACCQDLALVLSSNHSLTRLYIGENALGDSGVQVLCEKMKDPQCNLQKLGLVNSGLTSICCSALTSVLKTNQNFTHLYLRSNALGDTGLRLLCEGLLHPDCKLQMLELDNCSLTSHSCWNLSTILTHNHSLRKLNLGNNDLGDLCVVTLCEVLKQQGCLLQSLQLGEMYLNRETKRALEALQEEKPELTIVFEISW

Data set [9] has the same target. The data set is described as follows: Inhibition of NLRP3 inflammasome activation in LPS-induced mouse RAW264.7 cells assessed as reduction in ROS production by measuring intracellular ROS level at 3.0 uM incubated for 24 hrs by DCFH-DA staining based flow cytometric analysis (reference value: 42.0%). Type of data set: cell-based. Further details: scale not given: the % may be the effect or the level left.

For data set [10] the target is unchanged. The data set is described as follows: Inhibition of NLRP3 inflammasome activation in LPS-induced mouse RAW264.7 cells assessed as reduction in ROS production by measuring intracellular ROS level at 6.0 uM incubated for 24 hrs by DCFH-DA staining based flow cytometric analysis (reference value: 42.0%). Type of data set: cell-based. Further details: scale not given: the % may be the effect or the level left.

Data set [11] shares this target. The data set is described as follows: Inhibition of NLRP3 inflammasome activation in LPS-induced mouse RAW264.7 cells assessed as reduction in NO production incubated for 24 hrs by Griess reagent based assay. To be noted: dose 1.5-6 µM. Type of data set: cell-based.
Data set [12] can be described thus: Induction of apoptosis in mouse RAW264.7 cells assessed as viable cells at 1.5 uM by Annexin V-FITC/PI staining based flow cytometric analysis (reference value: 96.4%). The format is toxicity, cell-based. To be noted: read-out: Activity.
For data set [13], the system named is RAW264.7. The data set is described as follows: Induction of apoptosis in mouse RAW264.7 cells assessed as apoptotic cells at 1.5 uM by Annexin V-FITC/PI staining based flow cytometric analysis (reference value: 1.9%). To be noted: raw264.7, 1.5 µM. The format is toxicity, cell-based.
The nature of data set [14]: Induction of apoptosis in mouse RAW264.7 cells assessed as viable cells at 3.0 uM by Annexin V-FITC/PI staining based flow cytometric analysis (reference value: 96.4%). Type of data set: toxicity, cell-based. To be noted: read-out: Activity.
Data set [15] concerns RAW264.7. The data set is described as follows: Induction of apoptosis in mouse RAW264.7 cells assessed as apoptotic cells at 3.0 uM by Annexin V-FITC/PI staining based flow cytometric analysis (reference value: 1.9%). Type of data set: toxicity, cell-based. To be noted: raw264.7, 3 µM.
Data set [16] in a line: Induction of apoptosis in mouse RAW264.7 cells assessed as viable cells at 6.0 uM by Annexin V-FITC/PI staining based flow cytometric analysis (reference value: 96.4%). Type of data set: toxicity, cell-based. To be noted: read-out: Activity.
Data set [17] has as its system RAW264.7. The data set is described as follows: Induction of apoptosis in mouse RAW264.7 cells assessed as apoptotic cells at 6.0 uM by Annexin V-FITC/PI staining based flow cytometric analysis (reference value: 1.9%). The note with it: raw264.7, 6 µM. The format is toxicity, cell-based.
The target in data set [18] is Transcription factor p65 (Mus musculus) (UniProt Q04207). The data set is described as follows: Inhibition of NF-kappaB p65 nuclear translocation in LPS-induced mouse RAW264.7 cells assessed as increase in p65 subunits in cytoplasm at 6.0 uM preincubated with compound for 2 hrs followed by LPS addition and measured after 2 hrs by DAPI staining based Zeiss laser confocal microscopic analysis. The note with it: time 4.0 hrs. The format is cell-based.
Chain of Transcription factor p65 (Mus musculus) (Q04207 whole entry): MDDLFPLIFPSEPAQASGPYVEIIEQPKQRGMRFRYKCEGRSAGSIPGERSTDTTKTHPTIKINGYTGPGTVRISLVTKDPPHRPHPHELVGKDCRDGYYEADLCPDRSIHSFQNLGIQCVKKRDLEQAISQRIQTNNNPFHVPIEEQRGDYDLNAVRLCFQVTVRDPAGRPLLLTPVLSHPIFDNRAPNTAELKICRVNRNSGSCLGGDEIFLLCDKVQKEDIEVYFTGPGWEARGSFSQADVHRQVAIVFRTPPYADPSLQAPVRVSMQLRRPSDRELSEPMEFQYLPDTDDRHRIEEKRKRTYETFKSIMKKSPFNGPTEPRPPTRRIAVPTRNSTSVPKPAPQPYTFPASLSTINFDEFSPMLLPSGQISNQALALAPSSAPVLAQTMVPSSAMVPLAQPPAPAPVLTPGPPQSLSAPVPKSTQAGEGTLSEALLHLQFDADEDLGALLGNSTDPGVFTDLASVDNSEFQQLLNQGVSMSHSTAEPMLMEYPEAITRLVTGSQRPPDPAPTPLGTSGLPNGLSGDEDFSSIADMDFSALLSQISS

In data set [19] the test system is RAW264.7. The data set is described as follows: Inhibition of NF-kappaB signaling pathway in mouse RAW264.7 cells assessed as reduction in p65 phosphorylation preincubated with compound for 2 hrs followed by LPS addition and measured after 22 hrs by Western blot analysis. The format is cell-based. To be noted: dose 1.5-6 µM, time 24.0 hrs.
Data set [20] deals with RAW264.7. The data set is described as follows: Inhibition of NF-kappaB signaling pathway in mouse RAW264.7 cells assessed as reduction in IkappaBalpha phosphorylation preincubated with compound for 2 hrs followed by LPS addition and measured after 22 hrs by Western blot analysis. The format is cell-based. To be noted: dose 1.5-6 µM, time 24.0 hrs.
For data set [21], the target named is NACHT, LRR and PYD domains-containing protein 3 (Mus musculus) (UniProt Q8R4B8). The data set is described as follows: Inhibition of NLRP3 inflammasome activation in mouse RAW264.7 cells assessed as reduction in NLRP3 expression at 1.5 to 6.0 uM preincubated with compound for 2 hrs followed by LPS addition and measured after 30 mins by Western blot analysis. Type of data set: cell-based. To be noted: dose 1.5-6 µM, time 2.5 hrs.

Data set [22] has the same target. The data set is described as follows: Inhibition of NLRP3 inflammasome activation in mouse RAW264.7 cells assessed as reduction in ASC expression at 1.5 to 6.0 uM preincubated with compound for 2 hrs followed by LPS addition and measured after 30 mins by Western blot analysis. The format is cell-based. To be noted: dose 1.5-6 µM, time 2.5 hrs.

For the molecule `CN1CCN(c2ccc(/C=C3\CCc4ccc(Br)cc4C3=O)nc2)CC1`, the Activity entry is “Dose-Dependent Effect” in the data set on RAW264.7 [1]; “Dose-Dependent Effect” with RAW264.7 [5]; “Dose-Dependent Effect” with RAW264.7 [6]; “Dose-Dependent Effect” in the data set with RAW264.7 [7]; 36.4% in data set [8]; 31.8% in data set [9]. For the same molecule, the Activity in data set [10] is 19.9%; in the data set on RAW264.7 [13] it was 3.8%; with RAW264.7 [15] it was 5.6%; in the data set on RAW264.7 [17] it was 6.8%. Moreover, the viability at 2.5 µM in data set [2] turned out to be 108%. The results for the inhibition at 2.5 µM in the data set on RAW264.7 [3] and in the data set with RAW264.7 [4] were 81.4% and 69.2%, respectively. Also, the inhibition entry (in data set [11]; in the data set on RAW264.7 [19]; with RAW264.7 [20]) was “Dose-Dependent Effect” in each case. For the same molecule, in data set [12], the viability at 1.5 µM amounted to 94.4%. The viability at 3 µM in [14] was 92.8%. The viability at 6 µM in data set [16] stood at 91.6%. Also, the inhibition result in data set [18], in [21] and in [22] was “Active” throughout.

The values above are taken from ChEMBL document CHEMBL5505999, “Discovery of anti-inflammatory agents from 3, 4-dihydronaphthalene-1(2H)-one derivatives by inhibiting NLRP3 inflammasome activation” (Eur J Med Chem, 2024).
